# Key:
# Assay type in all cases: functional
# Enterobacter cloacae [1] = experiment: Antimicrobial activity against carbapenem-resistant Enterobacter cloacae isolated from ICU patient wound assessed as resistant isolates by broth microdilution method in presence of beta-lactamase inhibitor Tazobactam
# Pseudomonas aeruginosa [2] = experiment: Antimicrobial activity against carbapenem-resistant Pseudomonas aeruginosa isolated from ICU patient respiratory tract assessed as resistant isolates by broth microdilution method in presence of beta-lactamase inhibitor Tazobactam
# Klebsiella pneumoniae [3] = experiment: Antimicrobial activity against ESBL producing Klebsiella pneumoniae isolated from ICU patient respiratory tract assessed as resistant isolates by broth microdilution method in presence of beta-lactamase inhibitor Tazobactam
# Enterococcus sp. [4] = experiment: Antimicrobial activity against vancomycin-resistant Enterococcus sp. isolated from ICU patient urine assessed as resistant isolates by broth microdilution method in presence of beta-lactamase inhibitor Tazobactam
# Staphylococcus aureus [5] = experiment: Antimicrobial activity against methicillin-resistant Staphylococcus aureus isolated from ICU patient wound assessed as resistant isolates by broth microdilution method in presence of beta-lactamase inhibitor Tazobactam
# Escherichia coli [6] = experiment: Antimicrobial activity against CTX-M ESBL producing Escherichia coli isolated from ICU patient blood assessed as resistant isolates by broth microdilution method in presence of beta-lactamase inhibitor Tazobactam
# Haemophilus influenzae [7] = experiment: Antimicrobial activity against Haemophilus influenzae isolated from ICU patient blood assessed as resistant isolates by broth microdilution method in presence of beta-lactamase inhibitor Tazobactam
# Enterococcus sp. [8] = experiment: Antimicrobial activity against vancomycin-resistant Enterococcus sp. isolated from ICU patient respiratory tract assessed as resistant isolates by broth microdilution method
# [9] = tested on: Staphylococcus epidermidis; experiment: Antimicrobial activity against methicillin-susceptible Staphylococcus epidermidis isolated from ICU patient respiratory tract assessed as resistant isolates by broth microdilution method in presence of beta-lactamase inhibitor Tazobactam
# Enterobacter cloacae [10] = experiment: Antimicrobial activity against carbapenem-resistant Enterobacter cloacae isolated from ICU patient respiratory tract assessed as resistant isolates by broth microdilution method in presence of beta-lactamase inhibitor Tazobactam
# Staphylococcus aureus [11] = experiment: Antimicrobial activity against methicillin-susceptible Staphylococcus aureus isolated from ICU patient wound assessed as resistant isolates by broth microdilution method in presence of beta-lactamase inhibitor Tazobactam
# Staphylococcus aureus [12] = experiment: Antimicrobial activity against methicillin-susceptible Staphylococcus aureus isolated from ICU patient respiratory tract assessed as resistant isolates by broth microdilution method in presence of beta-lactamase inhibitor Tazobactam
# Enterococcus sp. [13] = experiment: Antimicrobial activity against vancomycin-resistant Enterococcus sp. isolated from ICU patient respiratory tract assessed as resistant isolates by broth microdilution method in presence of beta-lactamase inhibitor Tazobactam
# Klebsiella pneumoniae [14] = experiment: Antimicrobial activity against ESBL producing Klebsiella pneumoniae isolated from ICU patient urine assessed as resistant isolates by broth microdilution method in presence of beta-lactamase inhibitor Tazobactam
# Pseudomonas aeruginosa [15] = experiment: Antimicrobial activity against carbapenem-resistant Pseudomonas aeruginosa assessed as resistant isolates by broth microdilution method in presence of beta-lactamase inhibitor Tazobactam
# Klebsiella pneumoniae [16] = experiment: Antimicrobial activity against ESBL producing Klebsiella pneumoniae assessed as resistant isolates by broth microdilution method in presence of beta-lactamase inhibitor Tazobactam
# [17] = tested on: Staphylococcus epidermidis; experiment: Antimicrobial activity against methicillin-susceptible Staphylococcus epidermidis isolated from ICU patient blood assessed as resistant isolates by broth microdilution method in presence of beta-lactamase inhibitor Tazobactam
# Staphylococcus aureus [18] = experiment: Antimicrobial activity against methicillin-susceptible Staphylococcus aureus isolated from ICU patient blood assessed as resistant isolates by broth microdilution method in presence of beta-lactamase inhibitor Tazobactam
# Escherichia coli [19] = experiment: Antimicrobial activity against CTX-M ESBL producing Escherichia coli isolated from ICU patient respiratory tract assessed as resistant isolates by broth microdilution method in presence of beta-lactamase inhibitor Tazobactam
# Enterobacter cloacae [20] = experiment: Antimicrobial activity against carbapenem-resistant Enterobacter cloacae isolated from ICU patient blood assessed as resistant isolates by broth microdilution method in presence of beta-lactamase inhibitor Tazobactam
# Staphylococcus aureus [21] = experiment: Antimicrobial activity against methicillin-susceptible Staphylococcus aureus isolated from ICU patient urine assessed as resistant isolates by broth microdilution method in presence of beta-lactamase inhibitor Tazobactam
# Enterococcus sp. [22] = experiment: Antimicrobial activity against vancomycin-resistant Enterococcus sp. assessed as resistant isolates by broth microdilution method in presence of beta-lactamase inhibitor Tazobactam
# Enterobacter cloacae [23] = experiment: Antimicrobial activity against carbapenem-resistant Enterobacter cloacae assessed as resistant isolates by broth microdilution method in presence of beta-lactamase inhibitor Tazobactam
# Haemophilus influenzae [24] = experiment: Antimicrobial activity against Haemophilus influenzae assessed as resistant isolates by broth microdilution method in presence of beta-lactamase inhibitor Tazobactam
# Haemophilus influenzae [25] = experiment: Antimicrobial activity against Haemophilus influenzae isolated from ICU patient wound assessed as resistant isolates by broth microdilution method in presence of beta-lactamase inhibitor Tazobactam
# Staphylococcus aureus [26] = experiment: Antimicrobial activity against methicillin-resistant Staphylococcus aureus assessed as resistant isolates by broth microdilution method in presence of beta-lactamase inhibitor Tazobactam
# Escherichia coli [27] = experiment: Antimicrobial activity against CTX-M ESBL producing Escherichia coli assessed as resistant isolates by broth microdilution method in presence of beta-lactamase inhibitor Tazobactam
# Staphylococcus aureus [28] = experiment: Antimicrobial activity against methicillin-resistant Staphylococcus aureus isolated from ICU patient blood assessed as resistant isolates by broth microdilution method in presence of beta-lactamase inhibitor Tazobactam
# Pseudomonas aeruginosa [29] = experiment: Antimicrobial activity against carbapenem-resistant Pseudomonas aeruginosa isolated from ICU patient blood assessed as resistant isolates by broth microdilution method in presence of beta-lactamase inhibitor Tazobactam
# [30] = tested on: Staphylococcus epidermidis; experiment: Antimicrobial activity against methicillin-susceptible Staphylococcus epidermidis assessed as resistant isolates by broth microdilution method in presence of beta-lactamase inhibitor Tazobactam
# [31] = tested on: Staphylococcus epidermidis; experiment: Antimicrobial activity against methicillin-resistant Staphylococcus epidermidis assessed as resistant isolates by broth microdilution method in presence of beta-lactamase inhibitor Tazobactam
# Haemophilus influenzae [32] = experiment: Antimicrobial activity against Haemophilus influenzae isolated from ICU patient respiratory tract assessed as resistant isolates by broth microdilution method in presence of beta-lactamase inhibitor Tazobactam
# Enterobacter cloacae [33] = experiment: Antimicrobial activity against carbapenem-resistant Enterobacter cloacae isolated from ICU patient urine assessed as resistant isolates by broth microdilution method in presence of beta-lactamase inhibitor Tazobactam
# Klebsiella pneumoniae [34] = experiment: Antimicrobial activity against ESBL producing Klebsiella pneumoniae isolated from ICU patient wound assessed as resistant isolates by broth microdilution method in presence of beta-lactamase inhibitor Tazobactam
# Staphylococcus aureus [35] = experiment: Antimicrobial activity against methicillin-resistant Staphylococcus aureus isolated from ICU patient respiratory tract assessed as resistant isolates by broth microdilution method in presence of beta-lactamase inhibitor Tazobactam
# Staphylococcus aureus [36] = experiment: Antimicrobial activity against methicillin-resistant Staphylococcus aureus isolated from ICU patient urine assessed as resistant isolates by broth microdilution method in presence of beta-lactamase inhibitor Tazobactam
# [37] = tested on: Staphylococcus epidermidis; experiment: Antimicrobial activity against methicillin-resistant Staphylococcus epidermidis isolated from ICU patient blood assessed as resistant isolates by broth microdilution method in presence of beta-lactamase inhibitor Tazobactam
# Pseudomonas aeruginosa [38] = experiment: Antimicrobial activity against carbapenem-resistant Pseudomonas aeruginosa isolated from ICU patient urine assessed as resistant isolates by broth microdilution method in presence of beta-lactamase inhibitor Tazobactam
# Enterococcus sp. [39] = experiment: Antimicrobial activity against vancomycin-resistant Enterococcus sp. isolated from ICU patient wound assessed as resistant isolates by broth microdilution method in presence of beta-lactamase inhibitor Tazobactam
# Pseudomonas aeruginosa [40] = experiment: Antimicrobial activity against carbapenem-resistant Pseudomonas aeruginosa isolated from ICU patient wound assessed as resistant isolates by broth microdilution method in presence of beta-lactamase inhibitor Tazobactam
# [41] = tested on: Staphylococcus epidermidis; experiment: Antimicrobial activity against methicillin-resistant Staphylococcus epidermidis isolated from ICU patient urine assessed as resistant isolates by broth microdilution method in presence of beta-lactamase inhibitor Tazobactam
# Staphylococcus aureus [42] = experiment: Antimicrobial activity against methicillin-susceptible Staphylococcus aureus assessed as resistant isolates by broth microdilution method in presence of beta-lactamase inhibitor Tazobactam
# Escherichia coli [43] = experiment: Antimicrobial activity against CTX-M ESBL producing Escherichia coli isolated from ICU patient urine assessed as resistant isolates by broth microdilution method in presence of beta-lactamase inhibitor Tazobactam
# [44] = tested on: Staphylococcus epidermidis; experiment: Antimicrobial activity against methicillin-resistant Staphylococcus epidermidis isolated from ICU patient wound assessed as resistant isolates by broth microdilution method in presence of beta-lactamase inhibitor Tazobactam
# Enterococcus sp. [45] = experiment: Antimicrobial activity against vancomycin-resistant Enterococcus sp. isolated from ICU patient blood assessed as resistant isolates by broth microdilution method in presence of beta-lactamase inhibitor Tazobactam
# Escherichia coli [46] = experiment: Antimicrobial activity against CTX-M ESBL producing Escherichia coli isolated from ICU patient wound assessed as resistant isolates by broth microdilution method in presence of beta-lactamase inhibitor Tazobactam
# Klebsiella pneumoniae [47] = experiment: Antimicrobial activity against ESBL producing Klebsiella pneumoniae isolated from ICU patient blood assessed as resistant isolates by broth microdilution method in presence of beta-lactamase inhibitor Tazobactam
# [48] = tested on: Staphylococcus epidermidis; experiment: Antimicrobial activity against methicillin-susceptible Staphylococcus epidermidis isolated from ICU patient wound assessed as resistant isolates by broth microdilution method in presence of beta-lactamase inhibitor Tazobactam
# [49] = tested on: Staphylococcus epidermidis; experiment: Antimicrobial activity against methicillin-susceptible Staphylococcus epidermidis isolated from ICU patient urine assessed as resistant isolates by broth microdilution method in presence of beta-lactamase inhibitor Tazobactam
smiles,measurement,setting,value
CCN1CCN(C(=O)N[C@@H](C(=O)N[C@@H]2C(=O)N3[C@@H]2SC(C)(C)[C@@H]3C(=O)O)c2ccccc2)C(=O)C1=O [PIPERACILLIN],Activity,Enterobacter cloacae [1],0%
same,Activity,Pseudomonas aeruginosa [2],2.5%
same,Activity,Klebsiella pneumoniae [3],7.3%
same,Activity,Enterococcus sp. [4],17.3%
same,Activity,Staphylococcus aureus [5],100%
same,Activity,Escherichia coli [6],6.9%
same,Activity,Haemophilus influenzae [7],0%
same,Activity,Enterococcus sp. [8],0%
same,Activity,[9],0%
same,Activity,Enterobacter cloacae [10],4.6%
same,Activity,Staphylococcus aureus [11],0%
same,Activity,Staphylococcus aureus [12],0%
same,Activity,Enterococcus sp. [13],13.3%
same,Activity,Klebsiella pneumoniae [14],13.3%
same,Activity,Pseudomonas aeruginosa [15],1.3%
same,Activity,Klebsiella pneumoniae [16],9.3%
same,Activity,[17],0%
same,Activity,Staphylococcus aureus [18],0%
same,Activity,Escherichia coli [19],1.6%
same,Activity,Enterobacter cloacae [20],4.2%
same,Activity,Staphylococcus aureus [21],0%
same,Activity,Enterococcus sp. [22],21.1%
same,Activity,Enterobacter cloacae [23],4.9%
same,Activity,Haemophilus influenzae [24],0.3%
same,Activity,Haemophilus influenzae [25],0%
same,Activity,Staphylococcus aureus [26],100%
same,Activity,Escherichia coli [27],1.9%
same,Activity,Staphylococcus aureus [28],100%
same,Activity,Pseudomonas aeruginosa [29],0%
same,Activity,[30],1.2%
same,Activity,[31],100%
same,Activity,Haemophilus influenzae [32],0.3%
same,Activity,Enterobacter cloacae [33],12.5%
same,Activity,Klebsiella pneumoniae [34],18.9%
same,Activity,Staphylococcus aureus [35],100%
same,Activity,Staphylococcus aureus [36],100%
same,Activity,[37],100%
same,Activity,Pseudomonas aeruginosa [38],0%
same,Activity,Enterococcus sp. [39],22.2%
same,Activity,Pseudomonas aeruginosa [40],0%
same,Activity,[41],100%
same,Activity,Staphylococcus aureus [42],0%
same,Activity,Escherichia coli [43],1.1%
same,Activity,[44],100%
same,Activity,Enterococcus sp. [45],27%
same,Activity,Escherichia coli [46],0%
same,Activity,Klebsiella pneumoniae [47],6.1%
same,Activity,[48],4.2%
same,Activity,[49],0%

# Source: ChEMBL document CHEMBL1275409, “Antimicrobial-resistant pathogens in intensive care units in Canada: results of the Canadian National Intensive Care Unit (CAN-ICU) study, 2005-2006” (2008)
